US11253524B2 (Gilead Sciences, Inc., priority 2018, dated 2022)

How the values were obtained:
MRP2 (ABCC2) = target: T1, MRP2 (ABCC2) (Homo sapiens, UniProt Q92887); test: in vitro; assay type: biochemical; conditions: human
T1 construct: host or cells: membrane vesicle preparations
Experimental: Cells and experimental conditions for the transporter inhibition assays are summarized below in Table 7. […] M15, M20, and M23 were prepared according to the procedures described herein. All other materials were purchased by SOLVO Biotechnology and experiments were conducted according to SOLVO Standard Operating Procedures (SOPs) of its certified ISO 9001:2008 system. Lot and product information was recorded by SOLVO Biotechnology.
Test compounds and positive control was incubated with membrane vesicle preparations (total protein: 50 μg/well) and the model substrate in the absence or presence of ATP. Reaction mixtures were preincubated for 15 minutes at 37° C. Reactions were started by the addition of 25 μL of 12 mM MgATP or AMP assay buffer (for background controls) preincubated separately. Reactions were stopped after 5 min by the addition of 200 μL of ice-cold washing buffer and immediate filtration via glass fiber filters mounted to a 96-well plate (filter plate). The filters were washed, dried and the amount of substrate inside the filtered vesicles determined by liquid scintillation. A positive control inhibitor was tested in parallel. Control membranes lacking transporter expression were used as negative control. All assays were performed in duplicate.
Fractional transport activities were calculated from the following equation: Activity %=(A−B)/(C−D)×100 where A is translocated amount of substrate in the presence of TA and ATP, B is translocated amount of substrate in the presence of TA, C is translocated amount of substrate in the presence of solvent and ATP, and D is translocated amount of substrate in the presence of solvent. IC50 Determination in Transporter Assays
IC50 is defined as the test article concentration needed to inhibit the maximal transporter specific transport by 50%. IC50 values were calculated using non-linear fitting of % inhibition versus concentration to a sigmoidal curve with a variable Hill Coefficient using GraphPad Prism 5 (GraphPad Software Inc., San Diego, Calif.). If the % inhibition was less than 50% at the highest concentration tested, the IC50 was not determined. No inhibition observed (NIO) is reported for relative inhibition results <20% and no concentration dependent transport observed up to the highest concentration tested.

[1] = target: T2, human hepatic microsomal UGT1A1 (Homo sapiens, UniProt P22309); test: biochemical
T2 sequence (P22309 26-533): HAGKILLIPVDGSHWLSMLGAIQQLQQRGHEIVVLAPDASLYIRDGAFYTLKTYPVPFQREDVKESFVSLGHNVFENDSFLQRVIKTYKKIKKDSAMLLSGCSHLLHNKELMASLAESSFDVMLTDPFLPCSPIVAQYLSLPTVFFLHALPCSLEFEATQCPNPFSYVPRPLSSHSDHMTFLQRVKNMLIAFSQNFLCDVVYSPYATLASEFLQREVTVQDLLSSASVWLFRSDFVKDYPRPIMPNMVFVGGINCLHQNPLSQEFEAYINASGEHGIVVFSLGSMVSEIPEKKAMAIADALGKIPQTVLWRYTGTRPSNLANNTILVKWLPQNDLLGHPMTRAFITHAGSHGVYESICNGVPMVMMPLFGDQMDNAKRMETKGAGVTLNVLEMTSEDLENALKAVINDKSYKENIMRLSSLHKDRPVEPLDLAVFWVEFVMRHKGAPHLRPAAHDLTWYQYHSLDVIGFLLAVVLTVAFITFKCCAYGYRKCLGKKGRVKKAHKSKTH
Experimental: The conditions for the assay were determined to be linear with respect to microsomal protein concentration and incubation time. […] Microsomal UGT1A1 activity was determined in duplicate. […] Diluted microsomal fraction was incubated on ice for 15 minutes with alamethicin, magnesium chloride and SACLAC. Substrate and inhibitor were then added and the mixture warmed to 37° C. for 0.5 minute. The reaction was initiated by the addition of UDP glucuronic acid in potassium phosphate buffer. The incubation continued at 37° C. with shaking and no light exposure for 2 minutes. Reactions were terminated by addition of one volume of 200 mM ascorbic acid in methanol, containing 200 nM 2-(N-(2-ethylphenyl)methylsulfonamido)-N-(2-(pyridin-2-ylthio)ethyl)acetamide as the internal standard.
A Shimadzu UFLC XR UPLC system was used for analysis. The column used was a Thermo-Hypersil Gold 1.9 μm C18 column (30×2.1 mm) held at 60° C. Mobile phases were; A: water containing 0.1% (v/v) formic acid, and B: acetonitrile containing 0.1% (v/v) formic acid, pumped at 0.7 mL/minute. Elution was achieved by a series of linear gradients over 2 minutes. The mass spectrometer was an Applied Biosciences SCIEX QTRAP 5500 triple quadrupole mass spectrometer with an electrospray interface operating in positive ion mode. Quantification was by metabolite/internal standard peak area ratio (PAR).
MS/MS transitions ([M+H]+) of m/z 761.2/475.1 and 937.2/475.1 for the monoglucuronide and diglucuronide, respectively. The PAR values for the two monoglucuronides were combined for quantification.
Reaction velocities were calculated from the rates of formation of the metabolites and were compared to those seen with the vehicle control (100% activity). IC50 values were calculated by non-linear regression using GraphPad Prism 7.03 and a sigmoidal three parameter inhibition model. […] During the testing period the inhibitory potency of atazanavir was determined four times, with each concentration tested in duplicate in each determination. The data from all runs were pooled and a global fit performed to determine the lower plateau value. […] For atazanavir, the IC50 values from the four duplicate runs were combined to generate a summary geometric mean and multiplicative standard deviation for this positive control inhibitor.

[2] = substrate: C=CC1=C(C)/C(=C/c2[nH]c(Cc3[nH]c(/C=C4\NC(=O)C(C)=C4C=C)c(C)c3CCC(=O)O)c(CCC(=O)O)c2C)NC1=O; test: cells, lysate or membranes named; conditions: other: under the assay conditions; pH 7.4

T1 sequence (Q92887 whole entry): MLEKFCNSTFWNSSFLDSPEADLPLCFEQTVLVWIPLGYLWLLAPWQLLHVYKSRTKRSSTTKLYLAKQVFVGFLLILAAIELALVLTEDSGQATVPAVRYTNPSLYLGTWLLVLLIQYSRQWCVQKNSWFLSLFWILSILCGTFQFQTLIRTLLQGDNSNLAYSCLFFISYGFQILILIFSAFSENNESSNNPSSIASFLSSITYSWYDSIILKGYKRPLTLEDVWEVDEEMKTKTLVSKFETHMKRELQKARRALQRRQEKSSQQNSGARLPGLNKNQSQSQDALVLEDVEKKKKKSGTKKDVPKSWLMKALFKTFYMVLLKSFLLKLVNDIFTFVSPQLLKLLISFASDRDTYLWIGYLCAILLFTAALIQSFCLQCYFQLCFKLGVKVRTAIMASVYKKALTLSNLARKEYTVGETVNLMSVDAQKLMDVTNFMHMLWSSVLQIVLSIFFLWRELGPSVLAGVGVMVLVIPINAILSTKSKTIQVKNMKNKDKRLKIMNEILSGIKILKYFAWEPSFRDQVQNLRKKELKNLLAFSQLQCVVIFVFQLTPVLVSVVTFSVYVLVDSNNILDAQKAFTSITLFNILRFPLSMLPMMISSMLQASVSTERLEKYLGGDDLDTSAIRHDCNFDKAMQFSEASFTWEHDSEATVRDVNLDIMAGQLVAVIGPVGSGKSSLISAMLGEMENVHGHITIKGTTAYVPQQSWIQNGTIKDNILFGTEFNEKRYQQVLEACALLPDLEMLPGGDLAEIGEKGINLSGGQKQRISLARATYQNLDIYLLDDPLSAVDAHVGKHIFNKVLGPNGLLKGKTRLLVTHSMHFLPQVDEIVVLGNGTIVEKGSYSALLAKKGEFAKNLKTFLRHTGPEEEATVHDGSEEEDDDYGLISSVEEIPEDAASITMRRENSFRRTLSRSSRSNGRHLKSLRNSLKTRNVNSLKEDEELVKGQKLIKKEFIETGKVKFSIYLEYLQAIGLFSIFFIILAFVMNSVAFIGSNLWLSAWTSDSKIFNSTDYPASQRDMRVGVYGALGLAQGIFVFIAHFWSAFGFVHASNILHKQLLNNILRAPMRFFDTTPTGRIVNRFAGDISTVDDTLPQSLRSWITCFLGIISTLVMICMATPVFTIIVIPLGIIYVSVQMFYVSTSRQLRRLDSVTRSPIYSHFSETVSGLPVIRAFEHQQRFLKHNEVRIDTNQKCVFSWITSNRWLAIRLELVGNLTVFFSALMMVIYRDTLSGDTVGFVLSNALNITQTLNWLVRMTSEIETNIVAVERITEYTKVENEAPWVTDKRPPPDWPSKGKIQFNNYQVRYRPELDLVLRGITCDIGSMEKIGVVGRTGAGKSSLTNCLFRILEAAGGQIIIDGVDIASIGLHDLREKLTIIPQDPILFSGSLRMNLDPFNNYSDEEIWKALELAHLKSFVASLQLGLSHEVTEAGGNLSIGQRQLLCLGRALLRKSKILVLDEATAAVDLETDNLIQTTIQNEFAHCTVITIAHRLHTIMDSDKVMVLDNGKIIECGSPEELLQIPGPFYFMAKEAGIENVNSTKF

In the case of `CCc1oc2ccccc2c1C(=O)c1cc(Br)c(O)c(Br)c1` [benzbromarone, reference compound], the inhibition at 5 min, 200 µM (MRP2 (ABCC2)) is reported as ≥ 99%.

With `COC(=O)N[C@H](C(=O)N[C@@H](Cc1ccccc1)[C@@H](O)CN(Cc1ccc(-c2ccccn2)cc1)NC(=O)[C@@H](NC(=O)OC)C(C)(C)C)C(C)(C)C` [atazanavir, reference compound] the IC50 [1] was 1200 nM and the “Lower plateau value, activity remaining (global best fit)” value ([1]; pooled data of four runs, standard error 2.94%) was 10.96%.

B1: human hepatic microsomal UGT1A1 (Homo sapiens) (protein)
chain: T2 sequence (P22309 26-533)
B1 gave a Km [2] of 0.98 µM.
